Results reported in PMC9578396, “Intrinsic Antibacterial Activity of Xeruborbactam In Vitro: Assessing Spectrum and Mode of Action” (Antimicrobial Agents and Chemotherapy, 2022).
Several values for one entry are separate records, joined by “and”; a condition that tells them apart may be missing. Identical values can stand only once. Like-named read-outs stand apart in the source and are kept apart here.

Assays:
Assay type in all cases: cell-based
[1] = test system: Pseudomonas aeruginosa; assay: Broth microdilution MIC (CLSI), Pseudomonas aeruginosa
Source text: (§1) (i) Panels of engineered bacterial strains containing various combinations of porin and efflux mutations were used. The construction of all the strains used in the study is described in detail in references, [44], and [45]. (ii) KPC-producing clinical isolates and their derivatives that lost KPC plasmids were used also. These strains and their origins are described in the Table S2. (iii) Finally, KPC-producing clinical isolates enriched in strains with porin mutations were used. The mutations identified include various deletions, insertions, nonsense mutations, and decreased expression. Most of the isolates were obtained from JMI Laboratories or International Health Management Associates (IHMA); they were collected in the course of global surveillance studies.
(§2) Bacterial isolates were subjected to broth microdilution susceptibility testing, performed according to Clinical and Laboratory Standards Institute (CLSI) methods ([46]), using panels prepared in-house. […] Xeruborbactam was synthesized at Qpex Biopharma, San Diego, CA. Avibactam was purchased from eNovation Chemicals LLC, Bridgewater, NJ, USA; zidebactam was from MedKoo Biosciences, Inc., Morrisville, NC, and nacubactam was from Advanced ChemBlocks, Hayward, CA. Durlobactam was synthesized at Acme Bioscience, Palo Alto, CA, USA.

[2] = test system: Klebsiella pneumoniae; assay: microbe, parasite or virus in culture; conditions: for MIC: Klebsiella pneumoniae
Source text: as §1, §2

[3] = test system: Acinetobacter baumannii; assay: Broth microdilution MIC (CLSI), Acinetobacter baumannii; conditions: Acinetobacter baumannii, read-out: MIC
Source text: as §1, §2

[4] = PAM1154 (oprM::Hg), xeruborbactam 0 µg/ml

Structure (SMILES): CC(C)(O/N=C(\C(=O)N[C@@H]1C(=O)N2C(C(=O)[O-])=C(C[n+]3ccccc3)CS[C@H]12)c1csc(N)n1)C(=O)O [Ceftazidime]
- MIC [1, 4]: 1 µg/mL
- MIC ([1]; PAM1154, xeruborbactam 2 µg/ml): 0.25 µg/mL
- MIC ([1]; PAM1154, xeruborbactam 4 µg/ml): 0.25 µg/mL
- MIC ([1]; PAM1154, xeruborbactam 8 µg/ml): 0.25 µg/mL
- MIC ([2]; BAA2814): 512 µg/mL

Structure (SMILES): Nc1nc(/C(=C/CC(=O)O)C(=O)N[C@@H]2C(=O)N3C(C(=O)O)=CCS[C@H]23)cs1 [Ceftibuten]
- fold decrease compared to MIC of antibiotic alone [2]: 0.015 (4) fold and 0.008 (8) fold
- fold decrease compared to MIC of antibiotic alone ([2]; KPM3532 (TolQ::M189K), with xeruborbactam at 4 μg/mL): 2 fold
- fold decrease compared to MIC of antibiotic alone ([2]; KPM3532 (TolQ::M189K), with xeruborbactam at 8 μg/mL): 2 fold
- fold decrease compared to MIC of antibiotic alone ([2]; KPM3534 (TolQ::S31F), with xeruborbactam at 4 μg/mL): 2 fold
- fold decrease compared to MIC of antibiotic alone ([2]; KPM3534 (TolQ::S31F), with xeruborbactam at 8 μg/mL): 4 fold
- MIC [2]: 0.06 µg/mL
- MIC ([2]; KPM3532 (TolQ::M189K), alone): 0.125 µg/mL
- MIC ([2]; KPM3534 (TolQ::S31F), alone): 0.125 µg/mL

Structure (SMILES): C[C@@H](O)[C@H]1C(=O)N2C(C(=O)O)=C(SCCN=CN)C[C@H]12 [Imipenem]
- MIC [1, 4]: 1 µg/mL
- MIC ([1]; PAM1154, xeruborbactam 2 µg/ml): 0.5 µg/mL
- MIC ([1]; PAM1154, xeruborbactam 4 µg/ml): 0.25 µg/mL
- MIC ([1]; PAM1154, xeruborbactam 8 µg/ml): 0.125 µg/mL
- MIC ([3]; AB1007 (no beta-lactamase), xeruborbactam 0 µg/ml): 0.125 µg/mL
- MIC ([3]; AB1007, xeruborbactam 2 µg/ml): 0.125 µg/mL
- MIC ([3]; AB1007, xeruborbactam 4 µg/ml): 0.03 µg/mL
- MIC ([3]; AB1007, xeruborbactam 8 µg/ml): 0.015 µg/mL
